# Results reported in patent US8835409B2, “3-alkenyl-6-halo-4-aminopicolinates and their use as herbicides” (Dow AgroSciences, LLC., priority 2011, dated 2014).
# Experiments:
# [1] = test system: Chenopodium album (lambsquarters); assay: Postemergence herbicidal activity, visual % control; format: in vivo; conditions: post-emergence, 336 h, post-emergent, after 14 days, 0 = no injury, 100 = complete kill, read-out: % Control CHEAL; for pest or weed control at 140 g/ha: 140 g ai/ha; for pest or weed control at 280 g/ha: 280 g ai/ha
# Procedure: (§1) Seeds or nutlets of the desired test plant species were planted in Sun Gro MetroMix® 306 planting mixture, which typically has a pH of 6.0 to 6.8 and an organic matter content of about 30 percent, in plastic pots with a surface area of 64 square centimeters. When required to ensure good germination and healthy plants, a fungicide treatment and/or other chemical or physical treatment was applied. The plants were grown for 7-21 days in a greenhouse with an approximate 15 hour photoperiod which was maintained at about 23-29° C. during the day and 22-28° C. during the night. Nutrients and water were added on a regular basis and supplemental lighting was provided with overhead metal halide 1000-Watt lamps as necessary. The plants were employed for testing when they reached the first or second true leaf stage.
# (§2) A weighed amount, determined by the highest rate to be tested, of each test compound was placed in a 25 mL glass vial and was dissolved in 4 mL of a 97:3 v/v (volume/volume) mixture of acetone and dimethyl sulfoxide (DMSO) to obtain concentrated stock solutions. […] The concentrated stock solutions obtained were diluted with 20 mL of an aqueous mixture containing acetone, water, isopropyl alcohol, DMSO, Atplus 411F crop oil concentrate, and Triton® X-155 surfactant in a 48.5:39:10:1.5:1.0:0.02 v/v ratio to obtain spray solutions containing the highest application rates. Additional application rates were obtained by serial dilution of 12 mL of the high rate solution into a solution containing 2 mL of 97:3 (v/v) mixture of acetone and dimethyl sulfoxide (DMSO) and 10 mL of an aqueous mixture containing acetone, water, isopropyl alcohol, DMSO, Atplus 411F crop oil concentrate, and Triton X-155 surfactant in a 48.5:39:10:1.5:1.0:0.02 (v/v) ratio to obtain ½X, ¼X, ⅛X and 1/16X rates of the high rate. Compound requirements are based upon a 12 mL application volume at a rate of 187 L/ha. Formulated compounds were applied to the plant material with an overhead Mandel track sprayer equipped with a 8002E nozzles calibrated to deliver 187 L/ha over an application area of 0.503 square meters at a spray height of […] above the average plant canopy height. Control plants were sprayed in the same manner with the solvent blank.
# (§3) The treated plants and control plants were placed in a greenhouse as described above and watered by sub-irrigation to prevent wash-off of the test compounds. After 14 days, the condition of the test plants as compared with that of the untreated plants was determined visually and scored on a scale of 0 to 100 percent where 0 corresponds to no injury and 100 corresponds to complete kill
# [2] = test system: Amaranthus retroflexus (pigweed); assay: as above; format: in vivo; conditions: post-emergence, 336 h, post-emergent, after 14 days, 0 = no injury, 100 = complete kill, read-out: % Control AMARE; for pest or weed control at 140 g/ha: 140 g ai/ha; for pest or weed control at 280 g/ha: 280 g ai/ha
# Procedure: as §1, §2, §3
# [3] = test system: Cirsium arvense (canada thistle); assay: as above; format: in vivo; conditions: post-emergence, 336 h, post-emergent, after 14 days, 0 = no injury, 100 = complete kill, read-out: % Control CIRAR; for pest or weed control at 140 g/ha: 140 g ai/ha; for pest or weed control at 280 g/ha: 280 g ai/ha
# Procedure: as §1, §2, §3
# [4] = test system: Triticum aestivum (spring wheat); assay: as above; format: in vivo; conditions: post-emergence, 336 h, post-emergent, after 14 days, 0 = no injury, 100 = complete kill, read-out: % Control TRZAS; for plant injury at 140 g/ha: 140 g ai/ha; for plant injury at 280 g/ha: 280 g ai/ha
# Procedure: as §1, §2, §3
# [5] = test system: Polygonum convolvulus (wild buckwheat); assay: as above; format: in vivo; conditions: Fallopia convolvulus, post-emergence, 336 h, post-emergent, after 14 days, 0 = no injury, 100 = complete kill, read-out: % Control POLCO; for pest or weed control at 280 g/ha: 280 g ai/ha; for pest or weed control at 140 g/ha: 140 g ai/ha
# Procedure: as §1, §2, §3
smiles,measurement,setting,value
"C=Cc1c(C(=O)O)nc(Cl)c(F)c1N [Compound 9, 4-amino-6-chloro-5-fluoro-3-vinylpicolinic acid]",melting point,,164 to 166 °C
same,pest or weed control at 140 g/ha,[1],100%
same,pest or weed control at 140 g/ha,[2],100%
same,pest or weed control at 140 g/ha,[3],100%
same,plant injury at 140 g/ha,[4],50%
"C[Si](C)(C)/C=C/c1c(C(=O)O)nc(Cl)c(F)c1N [Compound 15, (E)-4-amino-6-chloro-5-fluoro-3-(2-(trimethylsilyl)vinyl)picolinic acid]",melting point,,100 to 105 °C
same,pest or weed control at 140 g/ha,[1],80%
same,pest or weed control at 140 g/ha,[3],65%
same,plant injury at 140 g/ha,[4],0%
"C=Cc1c(N)cc(Cl)nc1C(=O)OC [Compound 3, methyl 4-amino-6-chloro-3-vinylpicolinate]",melting point,,53 to 54 °C
same,pest or weed control at 280 g/ha,[1],100%
same,pest or weed control at 280 g/ha,[2],100%
same,pest or weed control at 280 g/ha,[5],100%
same,pest or weed control at 280 g/ha,[3],100%
same,plant injury at 280 g/ha,[4],20%
"C/C=C/c1c(C(=O)OC)nc(Cl)c(F)c1N [Compound 5, (E)-methyl 4-amino-6-chloro-5-fluoro-3-(prop-1-en-1-yl)picolinate]",melting point,,107 to 109 °C
same,pest or weed control at 140 g/ha,[1],90%
same,pest or weed control at 140 g/ha,[2],0%
same,pest or weed control at 140 g/ha,[5],20%
same,pest or weed control at 140 g/ha,[3],65%
same,plant injury at 140 g/ha,[4],0%
"C/C=C\c1c(C(=O)O)nc(Cl)c(F)c1N [Compound 12, (Z)-4-amino-6-chloro-5-fluoro-3-(prop-1-en-l-yl)picolinic acid]",melting point,,141 to 143 °C
same,pest or weed control at 140 g/ha,[1],100%
same,pest or weed control at 140 g/ha,[2],100%
same,pest or weed control at 140 g/ha,[5],85%
same,pest or weed control at 140 g/ha,[3],80%
same,plant injury at 140 g/ha,[4],10%
"C=Cc1c(C(=O)O)nc(Cl)c(Cl)c1N [Compound 10, 4-amino-5,6-dichloro-3-vinylpicolinic acid]",melting point,,190 to 193 °C (dec.)
same,pest or weed control at 280 g/ha,[1],100%
same,pest or weed control at 280 g/ha,[2],100%
same,pest or weed control at 280 g/ha,[3],100%
same,plant injury at 280 g/ha,[4],20%
"C=C(F)c1c(C(=O)O)nc(Cl)c(F)c1N [Compound 14, 4-amino-6-chloro-5-fluoro-3-(1-fluorovinyl)picolinic acid]",pest or weed control at 140 g/ha,[1],90%
same,pest or weed control at 140 g/ha,[2],50%
same,pest or weed control at 140 g/ha,[5],90%
same,pest or weed control at 140 g/ha,[3],100%
same,plant injury at 140 g/ha,[4],0%
"C/C=C/c1c(C(=O)O)nc(Cl)c(F)c1N [Compound 13, (E)-4-amino-6-chloro-5-fluoro-3-(prop-1-en-l-yl)picolinic acid]",melting point,,153 to 155 °C
same,pest or weed control at 140 g/ha,[1],85%
same,pest or weed control at 140 g/ha,[2],60%
same,pest or weed control at 140 g/ha,[5],60%
same,pest or weed control at 140 g/ha,[3],70%
same,plant injury at 140 g/ha,[4],30%
"C=Cc1c(N)cc(Cl)nc1C(=O)O [Compound 11, 4-amino-6-chloro-3-vinylpicolinic acid]",melting point,,146 to 148 °C
same,pest or weed control at 280 g/ha,[1],100%
same,pest or weed control at 280 g/ha,[3],10%
same,plant injury at 280 g/ha,[4],50%
"C=Cc1c(C(=O)OC)nc(Cl)c(F)c1N [Compound 2, methyl 4-amino-6-chloro-5-fluoro-3-vinylpyridine-2-carboxylate]",melting point,,99 to 100 °C
same,pest or weed control at 140 g/ha,[1],90%
same,pest or weed control at 140 g/ha,[2],100%
same,pest or weed control at 140 g/ha,[3],70%
same,plant injury at 140 g/ha,[4],55%
"C=C(F)c1c(C(=O)OC)nc(Cl)c(F)c1N [Compound 6, methyl 4-amino-6-chloro-5-fluoro-3-(1-fluorovinyl)picolinate]",melting point,,98 to 100 °C
same,pest or weed control at 140 g/ha,[1],90%
same,pest or weed control at 140 g/ha,[2],20%
same,pest or weed control at 140 g/ha,[5],90%
same,pest or weed control at 140 g/ha,[3],75%
same,plant injury at 140 g/ha,[4],0%
"C=Cc1c(C(=O)OC)nc(Cl)c(Cl)c1N [Compound 1, methyl 4-amino-5,6-dichloro-3-vinylpicolinate]",melting point,,96 to 97 °C
same,pest or weed control at 280 g/ha,[1],100%
same,pest or weed control at 280 g/ha,[2],100%
same,pest or weed control at 280 g/ha,[5],100%
same,pest or weed control at 280 g/ha,[3],95%
same,plant injury at 280 g/ha,[4],0%
"Nc1c(F)c(Cl)nc(C(=O)O)c1/C=C/Cl [Compound 16, (E)-4-amino-6-chloro-3-(2-chlorovinyl)-5-fluoropicolinic acid]",melting point,,152 to 157 °C
same,pest or weed control at 140 g/ha,[1],100%
same,pest or weed control at 140 g/ha,[2],90%
same,pest or weed control at 140 g/ha,[5],10%
same,pest or weed control at 140 g/ha,[3],75%
same,plant injury at 140 g/ha,[4],80%
"C/C=C\c1c(C(=O)OC)nc(Cl)c(F)c1N [Compound 4, (Z)-methyl 4-amino-6-chloro-5-fluoro-3-(prop-1-en-1-yl)picolinate]",pest or weed control at 140 g/ha,[1],100%
same,pest or weed control at 140 g/ha,[2],100%
same,pest or weed control at 140 g/ha,[5],40%
same,pest or weed control at 140 g/ha,[3],85%
same,plant injury at 140 g/ha,[4],0%
"COC(=O)c1nc(Cl)c(F)c(N)c1/C=C/Cl [Compound 8, (E)-methyl 4-amino-6-chloro-3-(2-chlorovinyl)-5-fluoropicolinate]",melting point,,128 to 130 °C
same,pest or weed control at 140 g/ha,[1],90%
same,pest or weed control at 140 g/ha,[2],90%
same,pest or weed control at 140 g/ha,[5],60%
same,pest or weed control at 140 g/ha,[3],70%
same,plant injury at 140 g/ha,[4],0%
"COC(=O)c1nc(Cl)c(F)c(N)c1/C=C/[Si](C)(C)C [Compound 7, (E)-methyl 4-amino-6-chloro-5-fluoro-3-(2-(trimethylsilyl)vinyl)picolinate]",melting point,,103 to 105 °C
same,pest or weed control at 140 g/ha,[1],100%
same,pest or weed control at 140 g/ha,[2],90%
same,pest or weed control at 140 g/ha,[5],50%
same,pest or weed control at 140 g/ha,[3],55%
same,plant injury at 140 g/ha,[4],0%
